The results in this text go back to ChEMBL document CHEMBL1152059, “Novel inhibitors of influenza sialidases related to zanamivir. Heterocyclic replacements of the glycerol sidechain” (Bioorg Med Chem Lett, 1997).

Molecules are shown by their SMILES.

The experiment has as its target Neuraminidase (Influenza A virus (A/Puerto Rico/8/1934(H1N1)), UniProt P03468). Briefly: Inhibitory activity against influenza A virus sialidase.
In the case of `CCCCc1noc([C@@H]2OC(C(=O)O)=C[C@H](N)[C@H]2NC(C)=O)n1`, 56 µM corresponded to half-maximal inhibition (IC50).
As to `CC(=O)N[C@@H]1[C@@H](N)C=C(C(=O)O)O[C@H]1c1nc(-c2ccccc2)no1`, half-maximal inhibition (IC50) was put at 14 µM.
On to `CCCn1nc([C@@H]2OC(C(=O)OC(c3ccccc3)c3ccccc3)=C[C@H](NC(=O)OC(C)(C)C)[C@H]2NC(C)=O)nc1Cc1ccccc1`, for which the midpoint of inhibition, the IC50, lay at 12 µM.
As for `CC(=O)N[C@@H]1[C@@H](N)C=C(C(=O)O)O[C@H]1c1nc(Cc2ccccc2)no1`, the IC50 (usually the concentration that gives 50% inhibition) worked out at 99 µM.
As to `CCCCc1nnc([C@@H]2OC(C(=O)O)=C[C@H](N)[C@H]2NC(C)=O)n1CCC`, inhibition was half-maximal at 0.33 µM (IC50).
The result for `CCCn1nc(Cc2ccccc2)nc1[C@@H]1OC(C(=O)OC(c2ccccc2)c2ccccc2)=C[C@H](NC(=O)OC(C)(C)C)[C@H]1NC(C)=O` reads 0.07 µM.
Take `CC(=O)N[C@@H]1[C@@H](NC(=O)OC(C)(C)C)C=C(C(=O)OC(c2ccccc2)c2ccccc2)O[C@H]1c1nnc(Cc2ccccc2)[nH]1`: the IC50 stood at 87 µM.
As for `CC(=O)N[C@@H]1[C@@H](N)C=C(C(=O)O)O[C@H]1c1nc(C)no1`, the IC50 was determined as 23 µM.
